Activity calls are given as the source filed them. The calls are words filed in the database; no cut-off is given here.
Assays:
[1] = buffer, pH 7.4
Description: Lipophilicity, log K of the compound in 50 mM PBS at pH 7.4-10 to 60% methanol mixture by HPLC method

D(4) dopamine receptor [2] = target: T1, D(4) dopamine receptor (Homo sapiens, UniProt P21917); experiment: biochemical
T1 sequence (P21917 whole entry): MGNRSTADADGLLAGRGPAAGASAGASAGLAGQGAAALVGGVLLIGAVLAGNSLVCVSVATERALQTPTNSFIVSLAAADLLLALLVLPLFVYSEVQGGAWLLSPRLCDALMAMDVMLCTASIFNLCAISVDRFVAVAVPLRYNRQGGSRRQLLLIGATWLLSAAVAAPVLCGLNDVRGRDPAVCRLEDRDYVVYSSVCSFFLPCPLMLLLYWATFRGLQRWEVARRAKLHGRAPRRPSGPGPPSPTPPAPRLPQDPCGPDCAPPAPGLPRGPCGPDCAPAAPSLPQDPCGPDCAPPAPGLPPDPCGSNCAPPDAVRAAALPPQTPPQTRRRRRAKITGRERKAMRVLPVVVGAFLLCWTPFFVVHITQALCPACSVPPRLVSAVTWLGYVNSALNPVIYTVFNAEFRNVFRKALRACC
Description: Displacement of [3H]-YM-09151-2 from human cloned D4 receptor expressed in Sf9 cells after 60 mins by liquid scintillation counting

[3] = target: T2, 5-hydroxytryptamine receptor 1A (Homo sapiens, UniProt P08908); experiment: biochemical
T2 sequence (P08908 whole entry): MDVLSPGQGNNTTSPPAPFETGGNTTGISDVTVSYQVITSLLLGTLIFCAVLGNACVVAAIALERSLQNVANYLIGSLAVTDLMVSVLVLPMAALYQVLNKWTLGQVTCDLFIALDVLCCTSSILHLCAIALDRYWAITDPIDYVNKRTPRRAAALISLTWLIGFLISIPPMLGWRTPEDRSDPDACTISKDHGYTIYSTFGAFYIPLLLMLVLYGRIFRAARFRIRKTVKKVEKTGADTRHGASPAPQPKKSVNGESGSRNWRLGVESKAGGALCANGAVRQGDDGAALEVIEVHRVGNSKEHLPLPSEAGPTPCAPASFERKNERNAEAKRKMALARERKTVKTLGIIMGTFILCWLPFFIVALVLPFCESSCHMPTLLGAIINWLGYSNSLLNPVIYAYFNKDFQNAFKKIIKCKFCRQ
Description: Displacement of [3H]8-OH-DPAT from human cloned 5-HT1A receptor expressed in CHO cells after 60 mins by liquid scintillation counting

[4] = target: Muscarinic acetylcholine receptor M5 (Homo sapiens) (UniProt P08912); experiment: Binding affinity to muscarinic M5 receptor at 10 uM by radioligand binding assay
Sequence of Muscarinic acetylcholine receptor M5 (Homo sapiens) (P08912 whole entry): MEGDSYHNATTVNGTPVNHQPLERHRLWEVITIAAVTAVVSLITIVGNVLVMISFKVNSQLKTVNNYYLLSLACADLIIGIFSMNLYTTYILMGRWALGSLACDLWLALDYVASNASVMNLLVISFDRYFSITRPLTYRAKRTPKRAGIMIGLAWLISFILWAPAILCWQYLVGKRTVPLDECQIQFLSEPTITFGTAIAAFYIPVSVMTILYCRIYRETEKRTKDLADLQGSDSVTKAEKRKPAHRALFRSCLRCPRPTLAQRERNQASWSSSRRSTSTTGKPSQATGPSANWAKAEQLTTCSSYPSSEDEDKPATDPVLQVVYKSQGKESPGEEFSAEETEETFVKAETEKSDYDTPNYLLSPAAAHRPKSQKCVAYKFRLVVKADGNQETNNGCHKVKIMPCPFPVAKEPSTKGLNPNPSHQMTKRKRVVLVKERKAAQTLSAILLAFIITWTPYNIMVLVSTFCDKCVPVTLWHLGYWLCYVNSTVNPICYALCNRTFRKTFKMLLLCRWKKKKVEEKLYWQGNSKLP

[5] = target: Muscarinic acetylcholine receptor M4 (Homo sapiens) (UniProt P08173); experiment: Binding affinity to muscarinic M4 receptor at 10 uM by radioligand binding assay
[6] = target: Muscarinic acetylcholine receptor M3 (Homo sapiens) (UniProt P20309); experiment: Binding affinity to muscarinic M3 receptor at 10 uM by radioligand binding assay
Sequence of Muscarinic acetylcholine receptor M3 (Homo sapiens) (P20309 whole entry, looked up): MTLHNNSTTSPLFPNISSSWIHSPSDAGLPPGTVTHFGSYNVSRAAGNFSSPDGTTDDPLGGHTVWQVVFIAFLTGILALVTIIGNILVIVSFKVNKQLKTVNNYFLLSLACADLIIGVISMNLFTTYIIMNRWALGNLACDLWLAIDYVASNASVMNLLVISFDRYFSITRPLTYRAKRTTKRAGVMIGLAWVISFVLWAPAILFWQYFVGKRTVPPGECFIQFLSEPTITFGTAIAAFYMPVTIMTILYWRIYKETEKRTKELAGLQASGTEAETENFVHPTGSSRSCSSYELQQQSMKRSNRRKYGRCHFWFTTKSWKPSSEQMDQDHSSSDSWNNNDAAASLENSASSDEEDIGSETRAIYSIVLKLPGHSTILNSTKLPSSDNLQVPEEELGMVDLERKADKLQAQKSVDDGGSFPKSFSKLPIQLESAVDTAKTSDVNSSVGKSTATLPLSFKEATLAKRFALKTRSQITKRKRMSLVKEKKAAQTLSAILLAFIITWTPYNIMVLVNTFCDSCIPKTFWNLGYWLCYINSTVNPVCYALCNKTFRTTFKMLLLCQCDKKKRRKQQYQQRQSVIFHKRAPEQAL

[7] = target: Muscarinic acetylcholine receptor M2 (Homo sapiens) (UniProt P08172); experiment: Binding affinity to muscarinic M2 receptor at 10 uM by radioligand binding assay
Sequence of Muscarinic acetylcholine receptor M2 (Homo sapiens) (P08172 whole entry): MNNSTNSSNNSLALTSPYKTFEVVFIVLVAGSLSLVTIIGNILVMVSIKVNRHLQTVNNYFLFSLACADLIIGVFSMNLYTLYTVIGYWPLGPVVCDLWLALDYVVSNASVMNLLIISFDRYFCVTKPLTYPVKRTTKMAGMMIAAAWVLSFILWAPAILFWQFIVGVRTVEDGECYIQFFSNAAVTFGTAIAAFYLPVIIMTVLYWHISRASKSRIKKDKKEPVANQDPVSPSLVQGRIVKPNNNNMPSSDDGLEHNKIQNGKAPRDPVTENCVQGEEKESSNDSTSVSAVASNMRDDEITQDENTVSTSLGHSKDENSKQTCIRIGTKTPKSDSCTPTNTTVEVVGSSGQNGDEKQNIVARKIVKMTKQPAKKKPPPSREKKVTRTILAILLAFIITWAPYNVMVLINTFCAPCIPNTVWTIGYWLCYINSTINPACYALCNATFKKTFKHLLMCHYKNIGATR

[8] = target: Muscarinic acetylcholine receptor M1 (Homo sapiens) (UniProt P11229); experiment: Binding affinity to muscarinic M1 receptor at 10 uM by radioligand binding assay
Sequence of Muscarinic acetylcholine receptor M1 (Homo sapiens) (P11229 whole entry): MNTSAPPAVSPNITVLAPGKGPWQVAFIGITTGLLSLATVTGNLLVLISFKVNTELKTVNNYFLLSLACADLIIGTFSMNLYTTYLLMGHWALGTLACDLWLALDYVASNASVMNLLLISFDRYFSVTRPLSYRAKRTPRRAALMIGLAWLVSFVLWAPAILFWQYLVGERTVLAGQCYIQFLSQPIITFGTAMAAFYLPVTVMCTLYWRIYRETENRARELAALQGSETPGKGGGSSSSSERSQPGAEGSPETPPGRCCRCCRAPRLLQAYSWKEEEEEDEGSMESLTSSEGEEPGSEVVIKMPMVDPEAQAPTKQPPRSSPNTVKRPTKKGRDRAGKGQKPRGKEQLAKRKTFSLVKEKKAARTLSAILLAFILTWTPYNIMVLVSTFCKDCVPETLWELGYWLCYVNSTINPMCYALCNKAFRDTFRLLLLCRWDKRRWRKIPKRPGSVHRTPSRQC

[9] = Binding affinity to GABAA receptor at 10 uM by radioligand binding assay
[10] = Binding affinity to sigma 2 receptor at 10 uM by radioligand binding assay
[11] = target: Sigma non-opioid intracellular receptor 1 (Homo sapiens) (UniProt Q99720); experiment: Binding affinity to sigma 1 receptor at 10 uM by radioligand binding assay
Sequence of Sigma non-opioid intracellular receptor 1 (Homo sapiens) (Q99720 whole entry): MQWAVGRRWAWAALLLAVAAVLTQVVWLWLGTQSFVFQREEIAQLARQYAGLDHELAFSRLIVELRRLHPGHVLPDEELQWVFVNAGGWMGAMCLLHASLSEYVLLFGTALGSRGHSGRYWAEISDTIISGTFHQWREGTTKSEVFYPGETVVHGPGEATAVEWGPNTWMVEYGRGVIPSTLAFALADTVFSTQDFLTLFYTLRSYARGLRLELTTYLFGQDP

[12] = target: Histamine H3 receptor (Homo sapiens) (UniProt Q9Y5N1); experiment: Binding affinity to histamine H3 receptor at 10 uM by radioligand binding assay
[13] = target: Sodium-dependent dopamine transporter (Homo sapiens) (UniProt Q01959); experiment: Binding affinity to DAT at 10 uM by radioligand binding assay
[14] = target: D(1B) dopamine receptor (Homo sapiens) (UniProt P21918); experiment: Binding affinity to dopamine D5 receptor at 10 uM by radioligand binding assay
[15] = target: D(3) dopamine receptor (Homo sapiens) (UniProt P35462); experiment: Binding affinity to dopamine D3 receptor at 10 uM by radioligand binding assay
Sequence of D(3) dopamine receptor (Homo sapiens) (P35462 whole entry): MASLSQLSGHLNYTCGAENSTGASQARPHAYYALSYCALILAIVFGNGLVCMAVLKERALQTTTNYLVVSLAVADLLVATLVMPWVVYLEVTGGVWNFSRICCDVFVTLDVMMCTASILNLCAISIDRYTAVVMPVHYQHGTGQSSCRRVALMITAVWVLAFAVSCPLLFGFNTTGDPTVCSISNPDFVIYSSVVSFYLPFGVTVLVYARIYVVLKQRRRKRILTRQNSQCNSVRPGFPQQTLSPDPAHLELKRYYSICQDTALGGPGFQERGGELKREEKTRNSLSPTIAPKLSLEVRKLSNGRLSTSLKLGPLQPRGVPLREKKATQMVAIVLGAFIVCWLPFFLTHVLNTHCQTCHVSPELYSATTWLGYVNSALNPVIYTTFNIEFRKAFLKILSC

[16] = target: D(2) dopamine receptor (Homo sapiens) (UniProt P14416); experiment: Binding affinity to dopamine D2 receptor at 10 uM by radioligand binding assay
[17] = target: D(1A) dopamine receptor (Homo sapiens) (UniProt P21728); experiment: Binding affinity to dopamine D1 receptor at 10 uM by radioligand binding assay
[18] = target: Beta-3 adrenergic receptor (Homo sapiens) (UniProt P13945); experiment: Binding affinity to adrenergic beta3 receptor at 10 uM by radioligand binding assay
[19] = target: Beta-1 adrenergic receptor (Homo sapiens) (UniProt P08588); experiment: Binding affinity to adrenergic beta1 receptor at 10 uM by radioligand binding assay
[20] = target: Beta-2 adrenergic receptor (Homo sapiens) (UniProt P07550); experiment: Binding affinity to adrenergic beta2 receptor at 10 uM by radioligand binding assay
Sequence of Beta-2 adrenergic receptor (Homo sapiens) (P07550 whole entry, looked up): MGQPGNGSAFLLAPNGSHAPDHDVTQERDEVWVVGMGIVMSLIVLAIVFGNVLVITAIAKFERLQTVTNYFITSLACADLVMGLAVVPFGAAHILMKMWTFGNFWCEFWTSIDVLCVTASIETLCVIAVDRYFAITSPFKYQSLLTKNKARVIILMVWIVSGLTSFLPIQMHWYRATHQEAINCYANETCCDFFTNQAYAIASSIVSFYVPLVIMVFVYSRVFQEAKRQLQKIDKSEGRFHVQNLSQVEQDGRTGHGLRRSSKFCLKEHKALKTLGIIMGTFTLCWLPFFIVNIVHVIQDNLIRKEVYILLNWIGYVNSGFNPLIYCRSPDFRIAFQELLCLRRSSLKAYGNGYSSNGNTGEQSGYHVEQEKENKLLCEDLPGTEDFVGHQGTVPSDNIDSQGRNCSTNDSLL

[21] = target: Alpha-2B adrenergic receptor (Homo sapiens) (UniProt P18089); experiment: Binding affinity to adrenergic alpha2B receptor at 10 uM by radioligand binding assay
[22] = target: Alpha-2A adrenergic receptor (Homo sapiens) (UniProt P08913); experiment: Binding affinity to adrenergic alpha2A receptor at 10 uM by radioligand binding assay
[23] = target: Alpha-1A adrenergic receptor (Homo sapiens, UniProt P35348); experiment: Binding affinity to adrenergic alpha1A receptor by radioligand binding assay; conditions: read-out: Ki(app)
[24] = target: 5-hydroxytryptamine receptor 6 (Homo sapiens) (UniProt P50406); experiment: Binding affinity to 5HT6 receptor at 10 uM by radioligand binding assay
[25] = target: 5-hydroxytryptamine receptor 5A (Homo sapiens) (UniProt P47898); experiment: Binding affinity to 5HT5A receptor at 10 uM by radioligand binding assay
Sequence of 5-hydroxytryptamine receptor 5A (Homo sapiens) (P47898 whole entry): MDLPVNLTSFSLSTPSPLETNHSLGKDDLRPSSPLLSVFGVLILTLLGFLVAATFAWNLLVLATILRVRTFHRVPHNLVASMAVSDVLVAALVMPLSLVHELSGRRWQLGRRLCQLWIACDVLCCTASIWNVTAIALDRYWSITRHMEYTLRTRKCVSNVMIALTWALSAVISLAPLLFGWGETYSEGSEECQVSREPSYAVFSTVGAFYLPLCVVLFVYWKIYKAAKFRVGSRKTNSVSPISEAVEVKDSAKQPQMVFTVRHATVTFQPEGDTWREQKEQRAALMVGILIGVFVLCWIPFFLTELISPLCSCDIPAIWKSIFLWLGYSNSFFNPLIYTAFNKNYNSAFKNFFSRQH

[26] = target: 5-hydroxytryptamine receptor 3A (Homo sapiens) (UniProt P46098); experiment: Binding affinity to 5HT3 receptor at 10 uM by radioligand binding assay
[27] = target: 5-hydroxytryptamine receptor 2C (Homo sapiens) (UniProt P28335); experiment: Binding affinity to 5HT2C receptor at 10 uM by radioligand binding assay
[28] = target: 5-hydroxytryptamine receptor 2B (Homo sapiens, UniProt P41595); experiment: Binding affinity to 5HT2B receptor by radioligand binding assay; conditions: read-out: Ki(app)
[29] = target: 5-hydroxytryptamine receptor 2A (Homo sapiens, UniProt P28223); experiment: Binding affinity to 5HT2A receptor by radioligand binding assay; conditions: read-out: Ki(app)
[30] = target: 5-hydroxytryptamine receptor 1D (Homo sapiens) (UniProt P28221); experiment: Binding affinity to 5HT1D receptor at 10 uM by radioligand binding assay
Sequence of 5-hydroxytryptamine receptor 1D (Homo sapiens) (P28221 whole entry): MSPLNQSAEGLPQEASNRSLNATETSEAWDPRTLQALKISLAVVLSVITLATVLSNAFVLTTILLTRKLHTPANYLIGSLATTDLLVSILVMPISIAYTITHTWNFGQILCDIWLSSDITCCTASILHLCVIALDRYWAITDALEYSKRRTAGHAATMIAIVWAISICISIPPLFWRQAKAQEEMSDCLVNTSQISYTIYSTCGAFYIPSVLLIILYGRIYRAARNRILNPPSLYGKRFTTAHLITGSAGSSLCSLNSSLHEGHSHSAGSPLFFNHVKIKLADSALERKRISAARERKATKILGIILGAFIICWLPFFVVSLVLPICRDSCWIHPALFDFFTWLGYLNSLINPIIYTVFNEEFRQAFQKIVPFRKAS

[31] = target: 5-hydroxytryptamine receptor 1E (Homo sapiens) (UniProt P28566); experiment: Binding affinity to 5HT1E receptor at 10 uM by radioligand binding assay
[32] = target: 5-hydroxytryptamine receptor 1B (Homo sapiens) (UniProt P28222); experiment: Binding affinity to 5HT1B receptor at 10 uM by radioligand binding assay
[33] = target: T3, 5-hydroxytryptamine receptor 1A (Rattus norvegicus) (UniProt P19327); experiment: Agonist activity of 5-HT1A receptor in Wistar rat dorsal raphe serotonergic neuron assessed as inhibition of firing at 1 nM to 1 uM by electrophysiological test; assay type: functional
T3 sequence (whole entry): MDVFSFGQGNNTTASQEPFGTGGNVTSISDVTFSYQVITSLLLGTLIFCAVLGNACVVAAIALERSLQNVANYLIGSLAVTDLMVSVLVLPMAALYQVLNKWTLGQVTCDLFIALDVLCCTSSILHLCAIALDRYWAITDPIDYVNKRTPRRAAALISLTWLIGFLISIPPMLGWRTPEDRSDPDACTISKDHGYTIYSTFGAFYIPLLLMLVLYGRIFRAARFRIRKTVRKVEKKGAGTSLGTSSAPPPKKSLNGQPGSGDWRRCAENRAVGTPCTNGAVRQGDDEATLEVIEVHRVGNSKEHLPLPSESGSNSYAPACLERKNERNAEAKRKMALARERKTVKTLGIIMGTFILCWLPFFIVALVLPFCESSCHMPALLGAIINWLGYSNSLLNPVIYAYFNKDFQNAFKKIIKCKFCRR

[34] = target: T3, 5-hydroxytryptamine receptor 1A (Rattus norvegicus); experiment: Antagonist activity of 5-HT1A receptor in Wistar rat dorsal raphe serotonergic neuron assessed as reversal of 8-OH-DPAT-induced decrease in firing rate at 100 nM by electrophysiological test; assay type: functional; design: scale not given: the % may be the effect or the level left
[35] = Binding affinity to rat benzodiazepine binding site at 10 uM by radioligand binding assay
D(4) dopamine receptor [36] = target: T1, D(4) dopamine receptor
Description: Binding affinity to dopamine D4 receptor by radioligand binding assay

[37] = target: Alpha-1B adrenergic receptor (Homo sapiens, UniProt P35368)
Sequence of Alpha-1B adrenergic receptor (P35368 whole entry): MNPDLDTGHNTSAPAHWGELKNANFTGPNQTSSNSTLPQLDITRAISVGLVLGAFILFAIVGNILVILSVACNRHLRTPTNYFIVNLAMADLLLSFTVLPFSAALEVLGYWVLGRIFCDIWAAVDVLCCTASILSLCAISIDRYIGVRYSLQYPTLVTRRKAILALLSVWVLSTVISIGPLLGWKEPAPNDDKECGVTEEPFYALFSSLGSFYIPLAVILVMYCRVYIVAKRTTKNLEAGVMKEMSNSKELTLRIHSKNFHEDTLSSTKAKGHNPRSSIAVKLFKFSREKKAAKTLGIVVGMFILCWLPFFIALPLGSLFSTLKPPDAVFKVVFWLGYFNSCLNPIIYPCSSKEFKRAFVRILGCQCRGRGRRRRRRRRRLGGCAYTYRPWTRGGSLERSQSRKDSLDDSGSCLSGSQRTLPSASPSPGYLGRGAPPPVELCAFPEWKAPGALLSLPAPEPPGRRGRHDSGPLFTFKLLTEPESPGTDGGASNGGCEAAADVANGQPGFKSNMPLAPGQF
Description: Binding affinity to adrenergic alpha1B receptor by radioligand binding assay

[38] = target: 5-hydroxytryptamine receptor 7 (Homo sapiens, UniProt P34969)
Sequence of 5-hydroxytryptamine receptor 7 (P34969 whole entry): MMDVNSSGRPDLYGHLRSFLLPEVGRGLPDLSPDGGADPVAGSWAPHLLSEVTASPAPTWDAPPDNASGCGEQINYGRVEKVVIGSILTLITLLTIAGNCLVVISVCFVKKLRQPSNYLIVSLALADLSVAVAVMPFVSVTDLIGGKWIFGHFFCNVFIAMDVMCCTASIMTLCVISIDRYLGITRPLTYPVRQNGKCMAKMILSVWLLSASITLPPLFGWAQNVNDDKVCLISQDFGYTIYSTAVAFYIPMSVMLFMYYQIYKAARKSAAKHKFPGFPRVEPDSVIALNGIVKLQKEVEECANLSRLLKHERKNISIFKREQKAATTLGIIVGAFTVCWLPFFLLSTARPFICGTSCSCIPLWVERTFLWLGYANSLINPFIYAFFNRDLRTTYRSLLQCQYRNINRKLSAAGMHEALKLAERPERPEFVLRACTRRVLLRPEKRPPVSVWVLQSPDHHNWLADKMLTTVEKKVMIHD
Description: Binding affinity to 5HT7 receptor by radioligand binding assay

[39] = target: T2, 5-hydroxytryptamine receptor 1A
Description: Binding affinity to 5HT1A receptor by radioligand binding assay

SMILES: O=C(c1cccc2ccccc12)N(CCN1CC=C(c2ccccc2)CC1)c1ccccn1
- log K [1]: 4.07
- Ki (D(4) dopamine receptor [2]): 252 nM
- Ki [3]: 14 nM

SMILES: O=C(c1cccc2ccccc12)N(CCN1CCN(c2ccccc2)CC1)c1ccccn1
- log K [1]: 3.27
- Ki (D(4) dopamine receptor [2]): 550 nM
- Ki [3]: 35.8 nM

SMILES: O=C(C1CCCCC1)N(CCN1CC=C(c2ccccc2)CC1)c1ccccn1
- inhibition [4]: < 50%
- inhibition [5]: < 50%
- inhibition [6]: < 50%
- inhibition [7]: < 50%
- inhibition [8]: < 50%
- inhibition [9]: < 50%
- inhibition [10]: > 50%
- inhibition [11]: > 50%
- inhibition [12]: < 50%
- inhibition [13]: < 50%
- inhibition [14]: < 50%
- inhibition [15]: > 50%
- inhibition [16]: > 50%
- inhibition [17]: < 50%
- inhibition [18]: < 50%
- inhibition [19]: < 50%
- inhibition [20]: < 50%
- inhibition [21]: < 50%
- inhibition [22]: < 50%
- Ki [23]: 39 nM
- inhibition [24]: < 50%
- inhibition [25]: < 50%
- inhibition [26]: < 50%
- inhibition [27]: < 50%
- Ki [28]: 105 nM
- Ki [29]: 54 nM
- inhibition [30]: < 50%
- inhibition [31]: < 50%
- inhibition [32]: < 50%
- inhibition [33]: inactive
- Activity [34]: 44%
- inhibition [35]: < 50%
- Ki (D(4) dopamine receptor [36]): 55 nM
- Ki [37]: 296 nM
- Ki [38]: 60 nM
- Ki [39]: 0.69 nM
- log K [1]: 3.84
- Ki (D(4) dopamine receptor [2]): 385 nM
- Ki [3]: 0.51 nM

SMILES: O=C(c1ccc2ccccc2c1)N(CCN1CC=C(c2ccccc2)CC1)c1ccccn1
- log K [1]: 4.36
- Ki (D(4) dopamine receptor [2]): 291 nM
- Ki [3]: 8.36 nM

SMILES: O=C(c1cnc2ccccc2n1)N(CCN1CC=C(c2ccccc2)CC1)c1ccccn1
- log K [1]: 3.33
- Ki (D(4) dopamine receptor [2]): 35 nM
- Ki [3]: 8.27 nM

SMILES: COc1ccccc1N1CCN(CCN(C(=O)c2ccc3ccccc3c2)c2ccccn2)CC1
- log K [1]: 3.57
- Ki (D(4) dopamine receptor [2]): 184 nM
- Ki [3]: 1.61 nM

SMILES: O=C(C1CCCCC1)N(CCN1CCN(c2ccccc2)CC1)c1ccccn1
- inhibition [4]: < 50%
- inhibition [5]: < 50%
- inhibition [6]: < 50%
- inhibition [7]: < 50%
- inhibition [8]: < 50%
- inhibition [9]: < 50%
- inhibition [10]: > 50%
- inhibition [11]: > 50%
- inhibition [12]: < 50%
- inhibition [13]: < 50%
- inhibition [14]: < 50%
- inhibition [15]: > 50%
- inhibition [16]: > 50%
- inhibition [17]: < 50%
- inhibition [18]: < 50%
- inhibition [19]: < 50%
- inhibition [20]: < 50%
- inhibition [21]: < 50%
- inhibition [22]: < 50%
- Ki [23]: 584 nM
- inhibition [24]: < 50%
- inhibition [25]: < 50%
- inhibition [26]: < 50%
- inhibition [27]: < 50%
- Ki [28]: 327 nM
- Ki [29]: 180 nM
- inhibition [30]: < 50%
- inhibition [31]: < 50%
- inhibition [32]: < 50%
- inhibition [33]: inactive
- Activity [34]: 44%
- inhibition [35]: < 50%
- Ki (D(4) dopamine receptor [36]): 246 nM
- Ki [37]: 1050 nM
- Ki [38]: 198 nM
- Ki [39]: 1.85 nM
- log K [1]: 2.68
- Ki (D(4) dopamine receptor [2]): 946 nM
- Ki [3]: 1.21 nM

SMILES: O=C(c1ccc2ccccc2c1)N(CCN1CCN(c2ccccc2)CC1)c1ccccn1
- log K [1]: 3.48
- Ki (D(4) dopamine receptor [2]): 807 nM
- Ki [3]: 16.3 nM

SMILES: COc1ccccc1N1CCN(CCN(C(=O)c2cnc3ccccc3n2)c2ccccn2)CC1
- log K [1]: 2.61
- Ki (D(4) dopamine receptor [2]): 15 nM
- Ki [3]: 2.48 nM

SMILES: O=C(c1cnc2ccccc2n1)N(CCN1CCN(c2ccccc2)CC1)c1ccccn1
- log K [1]: 3.06
- Ki (D(4) dopamine receptor [2]): 56.8 nM
- Ki [3]: 36.2 nM

SMILES: COc1ccccc1N1CCN(CCN(C(=O)c2cccc3ccccc23)c2ccccn2)CC1
- log K [1]: 3.26
- Ki (D(4) dopamine receptor [2]): 69 nM
- Ki [3]: 1.89 nM

— ChEMBL document CHEMBL2163199, “Moderate chemical modifications of WAY-100635 improve the selectivity for 5-HT1A versus D4 receptors” (Bioorg Med Chem Lett, 2012)
